# From patent publication US12564193B2, “Isoxazoline-substituted benzamide derivative, and preparation method therefor and use thereof” (SHANDONG UNITED PESTICIDE INDUSTRY CO., LTD., priority 2020, dated 2026)
# Tested on: Cnaphalocrocis medinalis
# Test: Insecticidal activity, spray on pre-infested radish plants: Cnaphalocrocis medinalis
# Type: in vivo
# Conditions: 144 h, read-out: fatality rate on Cnaphalocrocis medinalis
# Procedure: (§1) For determination of insecticidal activity, the test method was as follows: a test solution with a desired concentration was prepared by dissolving a test compound sample in a suitable solvent (the kind of solvent was such as acetone, methanol, DMSO, etc., and was selected according to its dissolving ability for the sample). The test cell was composed of a small open container with 12-15 day old radish plants inside. The plants were pre-infested by placing 30-40 pests located on one leaf cut from the cultivated plant on one leaf of the test plant (leaf cutting method). As the leaves dehydrated, the pests moved on the test plants. After the pre-infesting, the soil of the test cells was covered with a layer of sand.
# (§2) The test method was as follows: the test was repeated for three times, and after spraying the formulated test compound, each test unit was allowed to dry for 1 hour, and then a black mesh cover was placed at the top. The test units were kept in a growth chamber at 25° C. and 70% relative humidity for 6 days. The mortality (fatality rate) of the insects was then visually assessed for each test unit, and the fatality rate was calculated as follows: […]
SMILES,pest or weed control at 0.1 ppm,pest or weed control at 1 ppm,pest or weed control at 10 ppm
Cc1cc(C2=NOC(c3cc(Cl)c(F)c(Cl)c3)(C(F)(F)F)C2)ccc1C(=O)NCc1ncccc1Cl (stereo not drawn) [Compound 13],> 80%,> 80%,> 80%
Cc1cc(C2=NOC(c3cc(Cl)c(F)c(Cl)c3)(C(F)(F)F)C2)ccc1C(=O)NCCc1cnccc1C(F)(F)F (stereo not drawn) [Compound 17],> 80%,> 80%,> 80%
Cc1cc(C2=NOC(c3cc(Cl)c(F)c(Cl)c3)(C(F)(F)F)C2)ccc1C(=O)NCc1ncc(Cl)cc1Cl (stereo not drawn) [Compound 11],> 80%,> 80%,> 80%

# Tested on: Chilo suppressalis
# Test: Insecticidal activity, spray on pre-infested radish plants: Chilo suppressalis
# Type: in vivo
# Conditions: Chilo suppressalis, 144 h, read-out: fatality rate on Chilo suppressalis
# Procedure: as §1, §2
SMILES,pest or weed control at 0.1 ppm,pest or weed control at 1 ppm,pest or weed control at 10 ppm
Cc1cc(C2=NOC(c3cc(Cl)c(F)c(Cl)c3)(C(F)(F)F)C2)ccc1C(=O)NCc1ncccc1Cl (stereo not drawn) [Compound 13],> 80%,> 80%,> 80%
Cc1cc(C2=NOC(c3cc(Cl)c(F)c(Cl)c3)(C(F)(F)F)C2)ccc1C(=O)NCCc1cnccc1C(F)(F)F (stereo not drawn) [Compound 17],> 80%,> 80%,> 80%
Cc1cc(C2=NOC(c3cc(Cl)c(F)c(Cl)c3)(C(F)(F)F)C2)ccc1C(=O)NCc1ncc(Cl)cc1Cl (stereo not drawn) [Compound 11],> 80%,> 80%,> 80%

# Tested on: Frankliniella occidentalis
# Test: Insecticidal activity, spray on pre-infested radish plants: Frankliniella occidentalis
# Type: in vivo
# Conditions: Frankliniella occidentalis, 144 h, read-out: fatality rate on Frankliniella occidentalis
# Procedure: as §1
# The test method was as follows: the test was repeated for three times, and after spraying the formulated test compound, each test unit was allowed to dry for 1 hour, and then a black mesh cover was placed at the top. The test units were kept in a growth chamber at 25° C. and 70% relative humidity for 6 days. The mortality (fatality rate) of the insects was then visually assessed for each test unit, and the fatality rate was calculated as follows:
# [formula] (1) Test Results for the Control of Frankliniella occidentalis by Exemplary Example Compounds
SMILES,pest or weed control at 1 ppm,pest or weed control at 10 ppm,pest or weed control at 25 ppm
Cc1cc(C2=NOC(c3cc(Cl)c(F)c(Cl)c3)(C(F)(F)F)C2)ccc1C(=O)NCc1ncccc1Cl (stereo not drawn) [Compound 13],> 80%,> 80%,> 80%
Cc1cc(C2=NOC(c3cc(Cl)c(F)c(Cl)c3)(C(F)(F)F)C2)ccc1C(=O)NCCc1cnccc1C(F)(F)F (stereo not drawn) [Compound 17],> 80%,> 80%,> 80%
Cc1cc(C2=NOC(c3cc(Cl)c(F)c(Cl)c3)(C(F)(F)F)C2)ccc1C(=O)NCc1ncc(Cl)cc1Cl (stereo not drawn) [Compound 11],> 80%,> 80%,> 80%

# Tested on: Spodoptera litura
# Test: Insecticidal activity, spray on pre-infested radish plants: Spodoptera litura
# Type: in vivo
# Conditions: 144 h, read-out: fatality rate on Spodoptera litura
# Procedure: as §1, §2
SMILES,pest or weed control at 0.1 ppm,pest or weed control at 1 ppm,pest or weed control at 10 ppm
Cc1cc(C2=NOC(c3cc(Cl)c(F)c(Cl)c3)(C(F)(F)F)C2)ccc1C(=O)NCc1ncccc1Cl (stereo not drawn) [Compound 13],> 80%,> 80%,> 80%
Cc1cc(C2=NOC(c3cc(Cl)c(F)c(Cl)c3)(C(F)(F)F)C2)ccc1C(=O)NCCc1cnccc1C(F)(F)F (stereo not drawn) [Compound 17],> 80%,> 80%,> 80%
Cc1cc(C2=NOC(c3cc(Cl)c(F)c(Cl)c3)(C(F)(F)F)C2)ccc1C(=O)NCc1ncc(Cl)cc1Cl (stereo not drawn) [Compound 11],> 80%,> 80%,> 80%

# Tested on: Plutella xylostella
# Test: Insecticidal activity, spray on pre-infested radish plants: Plutella xylostella
# Type: in vivo
# Conditions: Plutella xylostella, 144 h, read-out: fatality rate on Plutella xylostella
# Procedure: as §1, §2
SMILES,pest or weed control at 0.1 ppm,pest or weed control at 1 ppm,pest or weed control at 10 ppm
Cc1cc(C2=NOC(c3cc(Cl)c(F)c(Cl)c3)(C(F)(F)F)C2)ccc1C(=O)NCc1ncccc1Cl (stereo not drawn) [Compound 13],> 80%,> 80%,> 80%
Cc1cc(C2=NOC(c3cc(Cl)c(F)c(Cl)c3)(C(F)(F)F)C2)ccc1C(=O)NCCc1cnccc1C(F)(F)F (stereo not drawn) [Compound 17],> 80%,> 80%,> 80%
Cc1cc(C2=NOC(c3cc(Cl)c(F)c(Cl)c3)(C(F)(F)F)C2)ccc1C(=O)NCc1ncc(Cl)cc1Cl (stereo not drawn) [Compound 11],> 80%,> 80%,> 80%

# Tested on: Pieris rapae
# Test: Insecticidal activity, spray on pre-infested radish plants: Pieris rapae
# Type: in vivo
# Conditions: 144 h, read-out: fatality rate on Pieris rapae
# Procedure: as §1, §2
SMILES,pest or weed control at 0.1 ppm,pest or weed control at 1 ppm,pest or weed control at 10 ppm
Cc1cc(C2=NOC(c3cc(Cl)c(F)c(Cl)c3)(C(F)(F)F)C2)ccc1C(=O)NCc1ncccc1Cl (stereo not drawn) [Compound 13],> 80%,> 80%,> 80%
Cc1cc(C2=NOC(c3cc(Cl)c(F)c(Cl)c3)(C(F)(F)F)C2)ccc1C(=O)NCCc1cnccc1C(F)(F)F (stereo not drawn) [Compound 17],> 80%,> 80%,> 80%
Cc1cc(C2=NOC(c3cc(Cl)c(F)c(Cl)c3)(C(F)(F)F)C2)ccc1C(=O)NCc1ncc(Cl)cc1Cl (stereo not drawn) [Compound 11],> 80%,> 80%,> 80%

# Tested on: Mythimna separata
# Test: Insecticidal activity, spray on pre-infested radish plants: Mythimna separata
# Type: in vivo
# Conditions: Mythimna separata, 144 h, read-out: fatality rate on Mythimna separata
# Procedure: as §1, §2
SMILES,pest or weed control at 0.1 ppm,pest or weed control at 1 ppm,pest or weed control at 10 ppm
Cc1cc(C2=NOC(c3cc(Cl)c(F)c(Cl)c3)(C(F)(F)F)C2)ccc1C(=O)NCc1ncccc1Cl (stereo not drawn) [Compound 13],> 80%,> 80%,> 80%
Cc1cc(C2=NOC(c3cc(Cl)c(F)c(Cl)c3)(C(F)(F)F)C2)ccc1C(=O)NCCc1cnccc1C(F)(F)F (stereo not drawn) [Compound 17],> 80%,> 80%,> 80%
Cc1cc(C2=NOC(c3cc(Cl)c(F)c(Cl)c3)(C(F)(F)F)C2)ccc1C(=O)NCc1ncc(Cl)cc1Cl (stereo not drawn) [Compound 11],> 80%,> 80%,> 80%

# Tested on: Tetranychus cinnabarinus
# Test: Acaricidal activity, slide immersion of female adult mites: Tetranychus cinnabarinus
# Type: in vivo
# Conditions: 24 h, read-out: fatality rate on Tetranychus cinnabarinus
# Procedure: The test method was as follows: a test solution with a desired concentration was prepared by dissolving a test compound sample in a suitable solvent (the kind of solvent was such as acetone, methanol, DMSO, etc., and was selected according to its dissolving ability for the sample). A double-sided adhesive tape was cut into 2-3 cm long pieces, the pieces were attached to one end of a microscope slide, paper pieces on the adhesive tape were removed using tweezers, female adult mites which were consistent in size, bright in body color and lively in action were selected using a zero-size brush pen, the backs of the female adult mites were adhered to the double-sided adhesive tape (note: the adhesion should not cover mite feet, mite whiskers and mouthparts), with 4 rows of mites adhered to each piece and 10 heads of the mites adhered to each row.
# One end of the glass slide with the mites was immersed into a drug liquid, with slightly shaking for 5 seconds, and then the slide was taken out. The excess drug liquid around the mite body and is surroundings is quickly sucked off using absorbent paper. The slide was placed in the biochemical incubator described above, and the results were checked by using binoculars after 24 hours. The mites were slightly touched by using a brush pen, the mites with immobility in feet were considered to be dead, and the fatality rate was calculated. The fatality rate was calculated as follows: […]
SMILES,pest or weed control at 1 ppm,pest or weed control at 10 ppm,pest or weed control at 25 ppm
Cc1cc(C2=NOC(c3cc(Cl)c(F)c(Cl)c3)(C(F)(F)F)C2)ccc1C(=O)NCc1ncccc1Cl (stereo not drawn) [Compound 13],> 80%,> 80%,> 80%
Cc1cc(C2=NOC(c3cc(Cl)c(F)c(Cl)c3)(C(F)(F)F)C2)ccc1C(=O)NCCc1cnccc1C(F)(F)F (stereo not drawn) [Compound 17],> 80%,> 80%,> 80%
Cc1cc(C2=NOC(c3cc(Cl)c(F)c(Cl)c3)(C(F)(F)F)C2)ccc1C(=O)NCc1ncc(Cl)cc1Cl (stereo not drawn) [Compound 11],> 80%,> 80%,> 80%
